For 20 compounds, IC50 results are on record in US20250042889A1, “3CLPRO PROTEASE INHIBITOR” (SHANGHAI QILU PHARMACEUTICAL RESEARCH AND DEVELOPMENT …, priority 2021, published 2025).

Where only a bound is given, the exact number is not on record here.

The test addresses SARS-COV-2 3CLpro/Mpro protease (Severe acute respiratory syndrome coronavirus 2 (2019-nCoV) (SARS-CoV-2), UniProt P0DTD1). The test is described as follows: Inhibitory effect on SARS-COV-2 3CLpro/Mpro protease by fluorescence resonance energy transfer. Format: biochemical. Conditions: activity intervals A-D, read-out: IC50 (nM), Inhibition on SARS-CoV-2 3CLpro/Mpro protease.
`O=C(c1cncc(I)c1)N1CC(Nc2c(C(=O)N3CCOCC3)cc(Br)cc2[N+](=O)[O-])C(F)(F)C1` (centres unmarked) [Example 167]: the IC50 is 10 to 50 nM.
As for `CNc1cncc(C(=O)N[C@H]2CCCC[C@H]2Nc2c(C(=O)N3CCO[C@@H](C)C3)cc(Br)cc2[N+](=O)[O-])c1` [Example 231], the figure is 10 to 50 nM; as for `CNc1cncc(C(=O)N[C@H]2CCCC[C@H]2Nc2c(C(=O)N3CCO[C@H](C)C3)cc(Br)cc2[N+](=O)[O-])c1` [Example 237], 10 to 50 nM.
Turning to `O=C(N[C@H]1COCC[C@H]1Nc1c(C(=O)N2CCCCC2)cc(Br)cc1[N+](=O)[O-])c1cncc2ccccc12` [Example 194], the IC50 was 10 to 50 nM.
To `CNc1cncc(C(=O)N2C[C@H](Nc3c(C(=O)N4C[C@@H](C)O[C@@H](C)C4)cc(Br)cc3[N+](=O)[O-])C[C@H]2C(=O)Nc2nn(-c3cccnc3)cc2Br)c1` [Example 424] belongs 50 to 100 nM; to `CNc1ccc2c(C(=O)N3CCC[C@@H](Nc4c(C(=O)N5C[C@@H](C)O[C@@H](C)C5)cc(Br)cc4[N+](=O)[O-])C3)cc(=O)[nH]c2c1` [Example 343], 10 to 50 nM.
For `O=C(c1cncnc1)N1CCC[C@@H](Nc2c(C(=O)N3CCCCC3)cc(Br)cc2[N+](=O)[O-])C1` [Example 60], the IC50 lay in the range of 50 to 100 nM.
As for `CNc1cncc(C(=O)N2C[C@H](Nc3c(C(=O)N4C[C@@H](C)O[C@@H](C)C4)cc(Br)cc3[N+](=O)[O-])C[C@@H](O[C@H]3CCOC3)C2)c1` [Example 452, (5-Bromo-2-(((3R,5R)-1-(5-(methylamino)nicotinoyl)-5-((S)-tetrahydrofuran-3-yl)oxy)piperidin-3-amino)-3-nitrophenyl)((2S,6R)-2,6-dimethylmorpholinyl)methanone], the IC50 is 50 to 100 nM.
Regarding `O=C(c1cc(Br)cc([N+](=O)[O-])c1N[C@@H]1CCCN(C(=O)[C@H]2CNCC(F)(F)C2)C1)N1CCC2(CCCO2)CC1` [Example 333], the IC50 is 10 to 50 nM.
As to `C=C1CNCC(C(=O)N2CCC[C@@H](Nc3c(C(=O)N4CCCCC4)cc(Br)cc3[N+](=O)[O-])C2)C1` (some centres unmarked) [Example 324], the IC50 is 100 to 200 nM.
Regarding `CNc1cncc(C(=O)N2CCC[C@@H](Nc3c(C(=O)N4CCC[C@@H](C)C4)cc(Br)cc3[N+](=O)[O-])C2)c1` [Example 253], the IC50 was 50 to 100 nM.
As for `CNc1cncc(C(=O)N2CCC[C@@H](Nc3c(C(=O)N4CCC[C@H](C)C4)cc(Br)cc3[N+](=O)[O-])C2)c1` [Example 256], the figure is 10 to 50 nM.
With `CNc1cncc(C(=O)N2C[C@H](Nc3c(C(=O)N4C[C@@H](C)O[C@@H](C)C4)cc(Br)cc3[N+](=O)[O-])C[C@H]2C(=O)Nc2ccnc(F)c2)c1` [Example 415], the IC50 is 50 to 100 nM.
Take `CC(C)(C)C1CCN(C(=O)c2cc(Br)cc([N+](=O)[O-])c2N[C@@H]2CCCN(C(=O)[C@@H]3CCNC(=O)C3)C2)CC1` [Example 163]: the IC50 is 10 to 50 nM.
On to `CNc1cncc(C(=O)N2C[C@H](Nc3c(C(=O)N4C[C@@H](C)O[C@H](C)C4)cc(Br)cc3[N+](=O)[O-])C(C)(C)C2)c1` [Example 187], for which the IC50 lay in the range of 10 to 50 nM.
In the case of `O=C(N[C@H]1CCCC[C@H]1Nc1c(C(=O)N2CCC(N3CCOCC3)CC2)cc(Br)cc1[N+](=O)[O-])c1cc(=O)[nH]c2ccccc12` [Example 136], the IC50 was below 10 nM.
On to `CNc1cncc(C(=O)N2CCC[C@@H](Nc3c(C(=O)N4CC(C)O[C@H](C(F)(F)F)C4)cc(Br)cc3[N+](=O)[O-])C2)c1` (some centres unmarked) [Example 345], for which the IC50 lay in the range of 10 to 50 nM.
For `CNc1cncc(C(=O)N2CC(Nc3c(C(=O)N4CCC(C)(C)CC4)cc(Br)cc3[N+](=O)[O-])C(C)(C)C2)c1` (centres unmarked) [Example 175], the IC50 is 10 to 50 nM.
For the compound `CNc1cncc(C(=O)N2CCC[C@@H](Nc3c(C(=O)N4CCC5(CC4)COC(C)(C)C5)cc(Br)cc3[N+](=O)[O-])C2)c1` [Example 339], the IC50 is 10 to 50 nM.
As for `CNc1cncc(C(=O)N2C[C@H](Nc3c(C(=O)N4CCCCC4)cc(Br)cc3[N+](=O)[O-])C(C)(O)C2)c1` (some centres unmarked) [Example 245], the IC50 was in the range of 50 to 100 nM.
